Toxic doses and inconclusive results are not listed. No stated cut-off is given here; in the data, active means T/C of 150% or more; inactive means T/C below 125%.
System: L1210 leukemia ip in BDF1 mice, survival T/C
Assay: NCI In Vivo Anticancer Drug Screen. Data for tumor model L1210 Leukemia (intraperitoneal) in B6D2F1 (BDF1) mice
Details: endpoint: mean survival time, higher = longer survival
In short: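 In this screen, tumor-bearing mice given compound are compared to those given vehicle, and their survival values are reported as a treated-to-control quotient.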

Measured: T/C

Cc1ccc(S(=O)(=O)N/N=C2\CCCC3CC23C)cc1 (stereo not drawn)
inactive: dose: 75.0 mg/kg/injection, schedule: Q04DX002 (ip), vehicle: Klucel (hydroxypropylcellulose) (HPC) 93 % of control | dose: 150.0 mg/kg/injection, schedule: Q04DX002 (ip), vehicle: Klucel (hydroxypropylcellulose) (HPC) 93 % of control | dose: 300.0 mg/kg/injection, schedule: Q04DX002 (ip), vehicle: Klucel (hydroxypropylcellulose) (HPC) 104 % of control

CCC1(C)C(=O)c2ccccc2N(C)C1=O (stereo not drawn)
inactive: dose: 100.0 mg/kg/injection, schedule: Q04DX002 (ip), vehicle: saline with Tween-80 104 % of control | dose: 200.0 mg/kg/injection, schedule: Q04DX002 (ip), vehicle: saline with Tween-80 104 % of control

CSc1ccc(NC(=O)Oc2ccccc2C(=O)OCc2ccccc2)cc1
inactive: dose: 100.0 mg/kg/injection, schedule: Q01DX009 (ip), vehicle: gum acacia 95 % of control | dose: 200.0 mg/kg/injection, schedule: Q01DX009 (ip), vehicle: gum acacia 100 % of control | dose: 400.0 mg/kg/injection, schedule: Q01DX009 (ip), vehicle: gum acacia 102 % of control

CC1NCCC1CO (stereo not drawn)
inactive: dose: 50.0 mg/kg/injection, schedule: Q01DX009 (ip), vehicle: saline 104 % of control | dose: 100.0 mg/kg/injection, schedule: Q01DX009 (ip), vehicle: saline 97 % of control | dose: 100.0 mg/kg/injection, schedule: Q04DX003 (ip), vehicle: saline 96 % of control | dose: 200.0 mg/kg/injection, schedule: Q01DX009 (ip), vehicle: saline 94 % of control | dose: 200.0 mg/kg/injection, schedule: Q04DX003 (ip), vehicle: saline 104 % of control

— PubChem BioAssay AID248 (DTP/NCI, 2004)
